Among the data in patent US10961242B2, “Compounds as autotaxin inhibitors and pharmaceutical compositions comprising the same” (LegoChem Biosciences, Inc., priority 2018, dated 2021) are half-life and IC50 values, retold here.

Read-outs that look alike come from different tables or passages of the source. Some results are limits rather than exact numbers.

Data set [1] is described as follows: Microsomal stability, rat liver microsomes. The data set is classed as in vitro ADME. The following applies: male, SD, pH 7.4; rat liver microsomes (r), 0.5 mg/mL, NADPH regenerating system; read-out: MS (microsomal stability) t1/2. On the procedure: (§1) A 2.5 mM stock solution of test compound in DMSO is diluted to 25 uM with 100 mM potassium phosphate buffer (pH 7.4) containing 5 mM EDTA. This solution was mixed with reaction mixtures (final concentration 1 μM). The incubation mixtures (final volume 700 μL) of test compound with liver microsomes [Xenotech; rat (male SD), human (mixed gender)] consisted of liver microsomes (0.5 mg/mL), substrate (Compound 4, […]), NADPH regenerating system (1.3 mM NADP+, 3.3 mM Glucose-6-phosphate, 3.3 mM MgCl2, 0.4 U/ml Glucose-6-phosphate dehydrogenase) in 81.3 mM potassium phosphate buffer (pH 7.4) containing 1 mM EDTA in duplicates. The reaction was initiated by addition of the NADPH regenerating system after preincubation at 37° C. for 10 min with test compounds. 100 uL of aliquot of the sample was removed at 0, 5, 10, 20, 30 and 60 min. The reaction was stopped by addition of 200 uL of acetonitrile containing internal standard (0.3 uM of Dextromethorphan). Each sample was mixed and centrifuged at 14000 rpm for 10 min. The resulting supernatant was analyzed by the LC-MS/MS method for determination of loss of parent compound. % parent remaining was calculated at 6 point time testing was done for T½ determination.
For orientation: Liver microsomes are a subcellular fraction often used to study metabolism.

Data set [2] is described as follows: Microsomal stability, human liver microsomes. The data set is classed as in vitro ADME. To be noted: both sexes, pH 7.4; human liver microsomes (h), 0.5 mg/mL, NADPH regenerating system; read-out: MS (microsomal stability) t1/2. How it is done: as §1
The target of the next data set is human ENPP2 (Homo sapiens (Human), UniProt Q13822). The data set is described as follows: Inhibitory activity on human ENPP2 (FS-3 assay). The class given is biochemical. On the procedure: Two-fold dilution of each test compound solution (10 μM, 100% dimethyl sulfoxide) is carried out on 96-well V bottom plate (Costar 3363). After ten-fold dilution of each the test compound solution (100% dimethyl sulfoxide) with deionized distilled water, 10 μL of the diluted each mpound solution (10% dimethyl sulfoxide) was aliquoted to a black flat bottom 96-well plate (Costar 3915).

Data set [3] concerns LPA production in mouse plasma. The data set is described as follows: Ex-vivo assay (LPC assay) in mouse plasma. To be noted: LPA 18:1. The class given is biochemical. On the procedure: (§2) After 100-fold dilution of each test compound solution (5 μL) (10 mM, 100%, dimethyl sulfoxide) with 495 μL of methanol, 3 μL of the diluted methanol solution (1% dimethyl sulfoxide) was mixed with 57 μL of human or mouse blood serum solution in a 1.5 mL tube. The mixed test compound solution was serially diluted, 12 μL for each, with 48 μL of 100% blood serum to have 5 different concentrations, and each tube was kept for 15 minutes in a water bath with constant temperature of 37° C. Subsequently, a solution prepared by diluting 10 mg/mL 18:1 LPC solution (50% ethanol) with blood serum to have concentration of 375 μg/mL was aliquoted in an amount of 2 μL to each tube so as to have 50 μL. Each tube was kept for 3 hours in a water bath at 37° C. to allow a reaction. To the tube obtained after the reaction, 100 μL of 0.5 μM 17:0 LPA solution (chloroform/methanol/water=65/35/8) was aliquoted and mixed therein. Centrifuge was carried out for 10 minutes using a centrifuge at conditions of 14,000 rpm and 4° C. 100 μL of 50% methanol solution is aliquoted first to a 96-well polypropylene plate (Agilent Technology 5042-1385), and the supernatant (50 μL) in a tube after the centrifuge was carefully transferred to the plate followed by mixing. After covering it with Well cap (Thermo 276011), analysis was carried out by LC-MS/MS (Agilent 1260).
The test was carried out in the same process as Test example 2 to obtain the IC50 values in the following table 4.

A further data set has as its target human ATX (Homo sapiens (Human), UniProt Q13822). Description: Bis-pNPP assay. The data set is classed as biochemical. The following applies: bis-pNPP substrate, read-out: Enzymatic assay (IC50) bis-pNPP. How it is done: Eight-fold dilution of each test compound solution (10 μM, 100% dimethyl sulfoxide) is carried out on 96-well V bottom plate (Costar 3363). After […] of each test compound solution (100% dimethyl sulfoxide) with deionized distilled water, 10 μL of the diluted each test compound solution (10% dimethyl sulfoxide) was aliquoted to a black flat bottom 96-well plate (Costar 3915). 50 μL of 60 mM Tris-HCl (pH9.0) buffer was added thereto, and subsequently 20 μL of 3.75 nM human ATX solution (buffer solution: 50 mM Tris-HCl (pH8.5), 5 mM CaCl2, 2.5 mM MgCl2, 0.01% Brij35) and 20 μL of 25 mM Bis-pNPP (bis(p-Nitrophenyl)-phosphate sodium salt) solution (buffer solution: 50 mM Tris-HCl (pH9.0)) were added thereto, respectively, followed by mixing. […] Furthermore, IC50 values that are shown in Table 3 were calculated using Grafit5 Software based on the inhibitory activity percentage ratio.

Data set [4] concerns LPA production in blood serum caused by autotoxin. Description: Inhibitory activity on LPA production in mouse blood serum. The class given is biochemical. The following applies: mouse blood serum (m), 18:1 LPC, 3 hours at 37° C. On the procedure: as §2, with “The mixed test compound solution was serially diluted, 12 μL for each, with 48 μL of 100% blood serum to have 5 different concentrations, and each tube was kept for 15 minutes in a water bath with constant temperature of 37° C.” left out
(§3) In the following Table 3, the mouse blood serum was described as (m) and human blood serum was described as (h).

The test system is the same in data set [5]. Description: Inhibitory activity on LPA production in human blood serum. To be noted: human blood serum (h), 18:1 LPC, 3 hours at 37° C. The data set is classed as biochemical. How it is done: as §2, with “The mixed test compound solution was serially diluted, 12 μL for each, with 48 μL of 100% blood serum to have 5 different concentrations, and each tube was kept for 15 minutes in a water bath with constant temperature of 37° C.” left out
as §3

The mark [6] stands for this setting: FS-3 assay, same process as Test example 1, read-out: Enzymatic assay (IC50) FS-3.

Usually IC50 stands for the concentration that inhibits the measured activity by half. As to `O=C(CO)N1CCN(C(=O)Cn2cc(-c3cnc(NC4Cc5ccccc5C4)nc3)c(-c3ccncc3)n2)CC1` [Compound 115, 1-{4-[2-(4-{2-[(2,3-dihydro-1H-inden-2-yl)amino]pyrimidin-5-yl}-3-(pyridin-4-yl)-1H-pyrazol-1-yl)acetyl]piperazin-1-yl}-2-hydroxyethan-1-one], the half-life at 1 µM in data set [1] and in data set [2] was greater than 60 min in each case. The IC50 at human ENPP2 (setting [6]) worked out at 3.04 nM; in data set [3], 125 nM; on human ATX, 66.8 nM.
On to `O=C(Cn1cc(-c2cnc(NC3Cc4ccccc4C3)nc2)c(-c2ccccn2)n1)N1CCc2[nH]nnc2C1` [Compound 116, 2-(4-{2-[(2,3-dihydro-1H-inden-2-yl)amino]pyrimidin-5-yl}-3-(pyridin-2-yl)-1H-pyrazol-1-yl)-1-{1H,4H,5H,6H,7H-[1,2,3]triazolo[4,5-c]pyridin-5-yl}ethan-1-one], for which the half-life at 1 µM in data set [1] worked out at 25.2 ± 0.69 min; in data set [2], 33 min. Also, the IC50 is less than 1.56 nM at human ENPP2 (setting [6]), 7.1 nM in data set [3] and less than 1.56 nM at human ATX.
On to `O=C(Cc1nnc(-c2cnc(NC3CC=C(c4cccc(Cl)c4)CC3)nc2)o1)N1CCc2[nH]nnc2C1` (stereo not shown) [Compound 35, 2-[5-(2-{[4-(3-chlorophenyl)cyclohex-3-en-1-yl]amino}pyrimidin-5-yl)-1,3,4-oxadiazol-2-yl]-1-{1H,4H,5H,6H,7H-[1,2,3]triazolo[4,5-c]pyridin-5-yl}ethan-1-one], for which the concentration for half-maximal inhibition (IC50) came out at 46 nM in data set [4]; 2.4 nM at human ENPP2 (human ENPP2, FS-3 substrate, 30 min at 37° C., read-out: IC50); 99 nM in data set [5].
